“And” between values parts separate entries of the source, which are not always exact repeats. Equal values may be shown once. “Also recorded” adds a separate entry of the source.
What was measured:
Assay type in all cases: binding
USP7 [1] = molecular target: T1, USP7 (Homo sapiens, UniProt Q93009); assay: Intact protein MS (UHPLC-ESI-MS), covalent modification of USP7; conditions: 24 h incubation at 20°C, protein-to-compound ratio 1:31.25
T1 construct: USP7 catalytic domain (USP7CD) (208‐560); made in house
Procedure: The DSF results described above were validated by UHPLC‐ESI‐MS to verify possible covalent binding through a corresponding mass shift. Intact protein MS is an important screening method in irreversible‐covalent hit identification and is especially suitable for covalent fragment‐based drug discovery (FBDD). It allows for the identification of covalent binders by detecting covalent protein‐compound adducts, thus making use of the stability of the covalent bond.
USP7 was prepared in Tris buffer (25 mM Tris pH 8.0, 150 mM NaCl, 5 mM TCEP) with a protein‐to‐compound ratio of 1:31.25 and 5% (v/v) DMSO. The protein‐compound mixtures were all incubated at 20°C for 24 h on a rotating shaker. The analysis of intact protein mass was carried out using UHPLC‐ESI‐MS measurements, with data acquisition and data analysis as previously described.

USP7asoc = molecular target: T2, USP7asoc (Homo sapiens, UniProt Q93009, C300S/C315S/C334S/C478S/C488S/C510S); assay: Intact protein MS (UHPLC-ESI-MS), covalent modification of USP7asoc; conditions: 24 h incubation at 20°C, protein-to-compound ratio 1:31.25
T2 construct: (208‐560, C300/315/334/448/478/510S); made in house
Procedure: The DSF results described above were validated by UHPLC‐ESI‐MS to verify possible covalent binding through a corresponding mass shift. Intact protein MS is an important screening method in irreversible‐covalent hit identification and is especially suitable for covalent fragment‐based drug discovery (FBDD). It allows for the identification of covalent binders by detecting covalent protein‐compound adducts, thus making use of the stability of the covalent bond. USP7 was prepared in Tris buffer (25 mM Tris pH 8.0, 150 mM NaCl, 5 mM TCEP) with a protein‐to‐compound ratio of 1:31.25 and 5% (v/v) DMSO. The protein‐compound mixtures were all incubated at 20°C for 24 h on a rotating shaker. The analysis of intact protein mass was carried out using UHPLC‐ESI‐MS measurements, with data acquisition and data analysis as previously described.

[2] = molecular target: T3, USP7asoc (active site only cysteine) (Homo sapiens, UniProt Q93009, C300S/C315S/C334S/C478S/C488S/C510S); assay: Differential scanning fluorimetry (DSF), melting temperature shift of USP7asoc mutant; conditions: 8 µM protein, 250 µM compound (1:31.25)
T3 construct: (208‐560, C300/315/334/448/478/510S); made in house
Procedure: USP7asoc only retains the catalytic Cys223 while all the other six cysteines are mutated to serine. DSF was selected for initial assessment since it is an efficient and rapid primary screening method readily available to our lab. […] An important consideration when assessing covalent inhibitors is the time dependence of covalent target occupancy and thus potency, which is determined by the reaction kinetics of the covalent binding event. To allow for drawing conclusions on compounds with slower reaction kinetics, incubation times of 30 min, 4 h, and 24 h at 20°C were chosen for the DSF screen with USP7 (Table 1 and Figures 2 and 3). The threshold at which compounds were considered (de‐)stabilizers was defined at 0.5°C. In parallel, the intrinsic reactivity of a set of representative compounds was evaluated in a glutathione reactivity assay. […] The expression and purification of USP7 catalytic domain (USP7CD) (208‐560) and USP7asoc (active site only cysteine) by using a pET24a(+)_HLT_USP7 construct were performed as previously described. […] For the USP7asoc, six of the seven cysteines are mutated to serines (208‐560, C300/315/334/448/478/510S). All utilized protein sequences are depicted in Supporting Information S2: Table S.3.1. The melting temperatures of USP7 and USP7asoc in the presence or absence of fragments were determined by DSF on a Qiagen Rotor‐Q Model‐5‐Plex HRM real‐time PCR instrument (Qiagen, Hilden, Germany). SYPRO Orange (Life Technologies Corporation, Eugene, OR, USA) was used as a fluorescent dye at a final concentration of 5x. The protein concentration was 8 µM, and the final compound concentration was 250 µM, corresponding to a protein‐to‐compound ratio of 1:31.25. All compounds were dissolved in dimethyl sulfoxide (DMSO) and the proteins in Tris buffer (25 mM Tris pH 8.0, 150 mM NaCl, 5 mM TCEP, 5% (v/v) DMSO). All measurements were performed after 30 min, 4 h, and 24 h of incubation and at least in triplicate. DSF experiments were carried out with a constant heating rate of 270°C/h. The temperature was ramped from 28°C to 60°C–70°C with excitation and emission filters set at 470 nm and 610 nm, respectively. The melting temperatures (T m) of USP7 and USP7asoc were determined from the maxima of the first derivatives of the melting curves in OriginPro2020 (OriginLab, Northampton, MA, USA). The ∆T m was calculated by subtraction of the T m of the protein sample with pure DMSO from the T m of the protein sample mixed with compound. Error propagation was used to average multiple runs for a compound. A compound was considered to be a hit if the shift in the ∆T m was at least 0.50°C [55].

USP7 [3] = molecular target: T1, USP7; assay: Differential scanning fluorimetry (DSF), melting temperature shift of USP7; conditions: 8 µM protein, 250 µM compound (1:31.25)
Text: The influence of the synthesized compounds on the melting temperature (T m) of USP7 and its mutant USP7asoc (active site only cysteine) was investigated by DSF. USP7asoc only retains the catalytic Cys223 while all the other six cysteines are mutated to serine. DSF was selected for initial assessment since it is an efficient and rapid primary screening method readily available to our lab.
An important consideration when assessing covalent inhibitors is the time dependence of covalent target occupancy and thus potency, which is determined by the reaction kinetics of the covalent binding event. To allow for drawing conclusions on compounds with slower reaction kinetics, incubation times of 30 min, 4 h, and 24 h at 20°C were chosen for the DSF screen with USP7 (Table 1 and Figures 2 and 3). The threshold at which compounds were considered (de‐)stabilizers was defined at 0.5°C. In parallel, the intrinsic reactivity of a set of representative compounds was evaluated in a glutathione reactivity assay. […] Data obtained from the GSH reactivity studies are shown in Supporting Information S2: Table S2.1 and Figures S2.1–2.3.
The melting temperatures of USP7 and USP7asoc in the presence or absence of fragments were determined by DSF on a Qiagen Rotor‐Q Model‐5‐Plex HRM real‐time PCR instrument (Qiagen, Hilden, Germany). SYPRO Orange (Life Technologies Corporation, Eugene, OR, USA) was used as a fluorescent dye at a final concentration of 5x. The protein concentration was 8 µM, and the final compound concentration was 250 µM, corresponding to a protein‐to‐compound ratio of 1:31.25. All compounds were dissolved in dimethyl sulfoxide (DMSO) and the proteins in Tris buffer (25 mM Tris pH 8.0, 150 mM NaCl, 5 mM TCEP, 5% (v/v) DMSO). All measurements were performed after 30 min, 4 h, and 24 h of incubation and at least in triplicate. DSF experiments were carried out with a constant heating rate of 270°C/h. The temperature was ramped from 28°C to 60°C–70°C with excitation and emission filters set at 470 nm and 610 nm, respectively. The melting temperatures (T m) of USP7 and USP7asoc were determined from the maxima of the first derivatives of the melting curves in OriginPro2020 (OriginLab, Northampton, MA, USA). The ∆T m was calculated by subtraction of the T m of the protein sample with pure DMSO from the T m of the protein sample mixed with compound. Error propagation was used to average multiple runs for a compound. A compound was considered to be a hit if the shift in the ∆T m was at least 0.50°C [55].

T2 sequence (Q93009 with tags, fused parts or gaps C300S/C315S/C334S/C478S/C488S/C510S): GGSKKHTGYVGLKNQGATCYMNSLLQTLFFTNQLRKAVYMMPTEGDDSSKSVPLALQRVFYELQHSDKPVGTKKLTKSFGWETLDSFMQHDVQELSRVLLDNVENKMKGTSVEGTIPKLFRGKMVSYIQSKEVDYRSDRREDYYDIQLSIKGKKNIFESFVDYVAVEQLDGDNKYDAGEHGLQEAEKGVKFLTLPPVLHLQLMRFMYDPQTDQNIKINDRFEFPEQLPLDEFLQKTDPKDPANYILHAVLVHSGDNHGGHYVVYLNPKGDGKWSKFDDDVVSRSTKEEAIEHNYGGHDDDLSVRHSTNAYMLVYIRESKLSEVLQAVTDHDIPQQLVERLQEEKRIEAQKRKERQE
T3 sequence (Q93009 with tags, fused parts or gaps C300S/C315S/C334S/C478S/C488S/C510S): as above
T1 sequence (Q93009 with tags, fused parts or gaps): as the sequence (Q93009 with tags, fused parts or gaps C300S/C315S/C334S/C478S/C488S/C510S) above, with S96C, S111C, S130C, S274C, S284C, S306C counted along it

Row | Structure (SMILES) | ∆T m ± SD USP7asoc ([2]; 30 min incubation at 20°C) | ∆T m ± SD USP7asoc ([2]; 4 h incubation at 20°C) | ∆T m ± SD USP7asoc ([2]; 24 h incubation at 20°C) | ∆T m ± SD USP7 (USP7 [3]; 30 min incubation at 20°C) | ∆T m ± SD USP7 (USP7 [3]; 4 h incubation at 20°C) | ∆T m ± SD USP7 (USP7 [3]; 24 h incubation at 20°C) | protein species in deconvoluted mass spectrum of USP7 (USP7 [1]) | protein species in deconvoluted mass spectrum of USP7asoc (USP7asoc)
1 | O=[N+]([O-])c1ccc(F)nc1Nc1cc2c(-c3ccc(-c4cccnc4)cc3)cccc2cn1 [7h, N‐(6‐Fluoro‐3‐nitropyridin‐2‐yl)‐5‐[4‐(pyridin‐3‐yl)phenyl]isoquinolin‐3‐amine] | 0.30 ± 0 °C | 0.35 ± 0.09 °C | 0.35 ± 0.04 °C | 0.00 ± 0.12 °C | 0.15 ± 0 °C | 0.20 ± 0.09 °C | the unmodified protein species was again dominant; also recorded: unmodified USP7 and USP7asoc as the main peak | the unmodified protein species was again dominant; also recorded: unmodified USP7 and USP7asoc as the main peak
2 | O=[N+]([O-])c1ccc(F)nc1Nc1cc2c(-c3ccc4ccccc4c3)cccc2cn1 [7g, N‐(6‐Fluoro‐3‐nitropyridin‐2‐yl)‐5‐(naphthalen‐2‐yl)isoquinolin‐3‐amine] | 0.63 °C and 0.63 ± 0.07 °C | 0.25 ± 0.10 °C | 0.38 ± 0.06 °C | 0.10 ± 0.12 °C | 0.30 ± 0 °C | 0.25 ± 0.09 °C | mainly displayed the unmodified USP7 and USP7asoc species | mainly displayed the unmodified USP7 and USP7asoc species
3 | O=[N+]([O-])c1ccc(F)nc1Nc1cc2c(-c3cnn(CCO)c3)cccc2cn1 [7f, 2‐(4‐{3‐[(6‐Fluoro‐3‐nitropyridin‐2‐yl)amino]isoquinolin‐5‐yl}‐1H‐pyrazol‐1‐yl)ethan‐1‐ol] | 0.48 ± 0.09 °C | –0.23 ± 0.08 °C |  | 0.00 ± 0.12 °C |  |  | single‐arylated USP7 and USP7asoc as a main signal | single‐arylated USP7 and USP7asoc as a main signal

The next lines start with results.

Row | ∆T m ± SD USP7asoc ([2]; 30 min incubation at 20°C) | ∆T m ± SD USP7asoc ([2]; 4 h incubation at 20°C) | ∆T m ± SD USP7asoc ([2]; 24 h incubation at 20°C) | ∆T m ± SD USP7 (USP7 [3]; 30 min incubation at 20°C) | ∆T m ± SD USP7 (USP7 [3]; 4 h incubation at 20°C) | ∆T m ± SD USP7 (USP7 [3]; 24 h incubation at 20°C) | Structure (SMILES) | protein species in deconvoluted mass spectrum of USP7 (USP7 [1]) | protein species in deconvoluted mass spectrum of USP7asoc (USP7asoc)
4 |  |  |  | –0.40 ± 0.09 °C | –0.15 ± 0 °C | –0.15 ± 0 °C | O=[N+]([O-])c1ccc(Cl)nc1Nc1cc2c(-c3cnn(C4CC4)c3)cccc2cn1 [8e, N‐(6‐Chloro‐3‐nitropyridin‐2‐yl)‐5‐(1‐cyclopropyl‐1H‐pyrazol‐4‐yl)isoquinolin‐3‐amine] | mainly showed signals for unmodified USP7 and USP7asoc | mainly showed signals for unmodified USP7 and USP7asoc
5 | 0.05 ± 0.09 °C | 0.25 ± 0.12 °C | 0.33 ± 0.08 °C | –0.15 ± 0.12 °C | 0.15 ± 0 °C | 0.15 ± 0 °C | CCn1cc(-c2cccc3cnc(Nc4nc(Cl)ccc4[N+](=O)[O-])cc23)cn1 [8c, N‐(6‐Chloro‐3‐nitropyridin‐2‐yl)‐5‐(1‐ethyl‐1H‐pyrazol‐4‐yl)isoquinolin‐3‐amine] | only unmodified USP7 and USP7asoc were detected with a smaller peak corresponding to the single‐arylated protein species | only unmodified USP7 and USP7asoc were detected with a smaller peak corresponding to the single‐arylated protein species
6 | 0.15 ± 0 °C | 0.35 ± 0.09 °C | 0.28 ± 0.04 °C | –0.25 ± 0.09 °C | 0.00 ± 0 °C | 0.05 ± 0.09 °C | O=[N+]([O-])c1ccc(Cl)nc1Nc1cc2c(-c3ccc(-c4cccnc4)cc3)cccc2cn1 [8h, N‐(6‐Chloro‐3‐nitropyridin‐2‐yl)‐5‐[4‐(pyridin‐3‐yl)phenyl]isoquinolin‐3‐amine] | unmodified USP7 and USP7asoc as the main peak | unmodified USP7 and USP7asoc as the main peak
7 | –0.30 ± 0 °C | 0.35 ± 0.09 °C | 0.45 ± 0 °C |  | –0.10 ± 0.09 °C | 0.15 ± 0.09 °C | Cn1ccc(-c2cccc3cnc(Nc4nc(Cl)ccc4[N+](=O)[O-])cc23)c1 [8b, N‐(6‐Chloro‐3‐nitropyridin‐2‐yl)‐5‐(1‐methyl‐1H‐pyrrol‐3‐yl)isoquinolin‐3‐amine] | unmodified protein species was dominant with an additional smaller signal of the mono‐arylated species | only showed unmodified protein for USP7asoc
8 | 0.10 ± 0.17 °C | –0.15 ± 0.15 °C | –0.15 ± 0.12 °C | 0.05 ± 0.09 °C |  | –0.03 ± 0.11 °C | O=[N+]([O-])c1ccc(Cl)nc1Nc1cc2c(-c3ccc(-c4ccncc4)cc3)cccc2cn1 [8i, N‐(6‐Chloro‐3‐nitropyridin‐2‐yl)‐5‐[4‐(pyridin‐4‐yl)phenyl]isoquinolin‐3‐amine] | unmodified USP7 and USP7asoc as the main peak | unmodified USP7 and USP7asoc as the main peak

Reference: paper PMC12336439 (Archiv Der Pharmazie, 2025)
